Reference: patent US5935973A, “Heterocyclcarboxamide derivatives and their use as therapeutic agents” (Knoll Aktiengesellschaft, priority 1995, dated 1999)

Experiments:
[1] = molecular target: T1, α2D-adrenoceptors (Rattus norvegicus, UniProt P22909); assay: inhibition of tritiated idazoxan binding to α2D-adrenoceptors in rat frontal cortical tissue; conditions: rat frontal cortex; for inhibition at 1 µM: at 10^-6 M, tritiated idazoxan, read-out: % displacement of radio ligand, α2D; for Ki: tritiated idazoxan 1 nM, 0° C., 75 min
T1 construct: Frontal cortical tissue from the brains of male Charles River CD rats; from tissue; host or cells: rat frontal cortex membranes
T1 sequence (P22909 1-465): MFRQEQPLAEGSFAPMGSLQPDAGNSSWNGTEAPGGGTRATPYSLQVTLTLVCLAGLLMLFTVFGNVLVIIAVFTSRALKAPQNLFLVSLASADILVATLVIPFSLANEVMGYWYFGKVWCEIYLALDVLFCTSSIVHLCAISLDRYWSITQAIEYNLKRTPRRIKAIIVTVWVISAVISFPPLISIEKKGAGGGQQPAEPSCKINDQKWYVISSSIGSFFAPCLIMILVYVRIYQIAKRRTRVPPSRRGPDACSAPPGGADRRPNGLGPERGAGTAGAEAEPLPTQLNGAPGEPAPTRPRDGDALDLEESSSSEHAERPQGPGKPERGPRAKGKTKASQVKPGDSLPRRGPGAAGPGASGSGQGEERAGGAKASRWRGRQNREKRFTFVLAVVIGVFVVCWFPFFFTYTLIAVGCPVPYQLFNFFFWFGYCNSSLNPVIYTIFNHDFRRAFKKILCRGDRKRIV
Method: Frontal cortical tissue from the brains of male Charles River CD rats weighing between 150-250 g were homogenised in ice-cold 0.25 M sucrose (1:30 w/v) and centrifuged at 1,000 g at 4° C. for 12 minutes. The supernatant was stored on ice and the pellet was rehomogenised in 0.25 M sucrose (1:15 w/v) and centrifuged at 850 g at 4° C. for 12 minutes. Combined supernatants were diluted with 5 mM Tris-HCl (pH 7.5) containing 5 mM ethylenediamine tetraacetic acid (EDTA) readjusted to pH 7.5 (at 25° C.) with 1 M sodium hydroxide to 1:80 w/v, and centrifuged at 30,000 g at 4° C. for 10 minutes. The resulting pellet was resuspended in 50 mM Tris-HCl (pH 7.5) containing 5.68 mM L-ascorbic acid and 0.5 mM EDTA readjusted to pH 7.5 (at 25° C.) with 1 M sodium hydroxide, and centrifuged at 30,000 g for 10 minutes. The final pellet was resuspended in 50 mM Tris-HCl (pH 7.5) containing 5.68 mM L-ascorbic acid and 5 mM EDTA (equivalent to 12.5 mg wet weight of tissue/ml) and used immediately in the binding assay. Aliquots (400 μl; equivalent to 5 mg wet weight of tissue/tube) of this suspension were added to tubes containing the ligand (50 μl; 1 nM) and distilled water (50 μl; total binding) or phentolamine (50 μl; 5 μM; non-specificbinding) or test compound (50 μl; at a single concentration of 10^-6 M or at 10 concentrations ranging from 10^-11 -10^-3 M). The ligand was tritiated idazoxan ((1,4-[6,7(n)-^3 H]benzodioxan-2-yl)-2-imidazoline hydrochloride) and the mixture was incubated at 0° C. for 75 minutes before the incubation was terminated by rapid filtration.
The filters were washed with ice-cold Tris-HCl buffer and dried. The filters were punched out into vials, scintillation fluid added and radioactivity determined by liquid scintillation counting. […] Displacement curves were then produced for those compounds which displaced ≥50% of specific binding of the tritiated ligand at 10^-6 M using a range of concentrations of the compound. The concentration which gave 50% inhibition of specific binding (IC50) was obtained from the curve. The inhibition coefficient Ki was then calculated using the formula [formula] in which [ligand] is the concentration of the tritiated ligand used and KD is the equilibrium dissociation constant for the ligand.

[2] = molecular target: T2, D2 dopamine receptors (Rattus norvegicus, UniProt P61169); assay: inhibition of tritiated (S)-sulpiride binding to D2 dopamine receptors in rat striatal tissue; conditions: rat striatum; for Ki: tritiated (S)-sulpiride 1 nM, 4° C., 40 min; for inhibition at 1 µM: at 10^-6 M, tritiated (S)-sulpiride, read-out: % displacement of radio ligand, D2
T2 construct: Striatal tissue from the brains of male Charles River CD rats; from tissue; host or cells: rat striatum membranes
T2 sequence (P61169 whole entry): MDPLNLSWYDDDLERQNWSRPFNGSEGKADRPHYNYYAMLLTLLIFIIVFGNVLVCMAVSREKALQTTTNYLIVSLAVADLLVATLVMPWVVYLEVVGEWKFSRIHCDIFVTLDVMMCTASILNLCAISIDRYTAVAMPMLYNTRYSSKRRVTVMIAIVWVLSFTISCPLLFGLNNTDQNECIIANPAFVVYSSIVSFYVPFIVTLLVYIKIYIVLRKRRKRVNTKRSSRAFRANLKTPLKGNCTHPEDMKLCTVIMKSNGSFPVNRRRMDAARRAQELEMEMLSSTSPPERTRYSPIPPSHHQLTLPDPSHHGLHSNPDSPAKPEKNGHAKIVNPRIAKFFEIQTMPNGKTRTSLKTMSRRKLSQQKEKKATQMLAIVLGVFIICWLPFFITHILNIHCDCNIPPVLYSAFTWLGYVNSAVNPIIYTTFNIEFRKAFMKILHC
Method: Striatal tissue from the brains of male Charles River CD rats weighing between 140-250 g were homogenised in ice-cold 50 mM Tris-HCl buffer (pH 7.7 when measured at 25° C.) and centrifuged at 40,000 g for 10 minutes. The pellet was resuspended in Tris salts buffer (50 mM Tris-HCl buffer containing 120 mM NaCl, 5 mM KCl, 2 mM CaCl2 and 1 mM MgCl2 with the addition of 6 mM ascorbic acid; pH 7.7 when measured at 25° C.), and again centrifuged at 40,000 g for 10 minutes. The final pellet was stored at -80° C. Before each test the pellet was resuspended in Tris salts buffer (equivalent to 2 mg wet weight of tissue/ml). Aliquots (720 μl; equivalent to 1.44 mg wet weight of tissue/tube) of this suspension were then added to tubes containing the ligand (40 μl; 1 nM) and Tris salts buffer (40 μl; total binding) or spiroperidol (40 μl; 10 nM; non-specific binding) or test compound (40 μl; at a single concentration of 10^-6 M or at 6 concentrations ranging from 10^-11 -10^-4 M). The ligand was tritiated (S)-sulpiride and the mixture was incubated at 4° C. for 40 minutes before the incubation was terminated by rapid filtration.
The filters were washed with ice-cold Tris-HCl buffer and dried. The filters were punched out in to vials, scintillation fluid added and were left for about 20 hours before being counted by scintillation spectrophotometry. The percentage displacement of specific binding of the tritiated ligand was calculated for the single concentration (10^-6 M) of test compound. Displacement curves were then produced over a range of concentrations for those compounds which displaced ≥50% of specific binding of the tritiated ligand at 10^-6 M. The concentration which gave a 50% inhibition of specific binding (IC50) was obtained from the curve. The inhibition coefficient Ki was then calculated using the formula [formula] in [ligand] is the concentration of the tritiated ligand used and KD is the 2 equilibrium dissociation constant for the ligand.

SMILES | inhibition at 1 µM [1] | Ki [2] | inhibition at 1 µM [2] | Ki [1]
Nc1ncccc1C(=O)NCC1CCN(C[C@H]2COc3cccc(Cl)c3O2)CC1 [Example 2, (S)-2-amino-N-{[1-(8-chloro-1,4-benzodioxan-2-ylmethyl)-4-piperidyl]methyl}-pyridine-3-carboxamide] | 98% |  | 104% | 
Nc1ncccc1C(=O)NCC1CCN(C[C@H]2COc3cccc(F)c3O2)CC1 [Example 3, (S)-(-)-2-amino-N-{[1-(8-fluoro-1,4-benzodioxan-2-ylmethyl)-4-piperidyl]methyl}pyridine-3-carboxamide] | 99% | 32.9 nM |  | 
Nc1ncccc1C(=O)NCC1CCN(CC2COc3ccccc3O2)CC1 (stereo not drawn) [Example 4, 2-amino-N-{[1-(1,4-benzodioxan-2-ylmethyl)-4-piperidyl]methyl}pyridine-3-carboxamide] | 98% |  | 84% | 
O=C(NCC1CCN(CC2COc3ccccc3O2)CC1)c1ccccn1 (stereo not drawn) [Example 6, N-{[1-(1,4-benzodioxan-2-ylmethyl)-4-piperidyl]methyl}pyridine-2-carboxamide] |  | 67 nM |  | 4.4 nM
O=C(NCC1CCN(CC2COc3ccccc3O2)CC1)c1cccc2cccnc12 (stereo not drawn) [Example 8, N-{[1-(1,4-benzodioxan-2-ylmethyl)-4-piperidyl]methyl}quinoline-8-carboxamide] | 100% | 95 nM |  | 
Cc1ncccc1C(=O)NCC1CCN(C[C@H]2COc3cccc(Cl)c3O2)CC1 [Example 9, (S)-N-{[1-(8-chloro-1,4-benzodioxan-2-ylmethyl)-4-piperidyl]methyl}-2-methylpyridine-3-carboxamide] | 97% | 37 nM |  | 
Nc1ncccc1C(=O)NCC1CCN(CC2COc3ccc(F)cc3O2)CC1 (stereo not drawn) [Example 10, 2-amino-N-{[1-(7-fluoro-1,4-benzodioxan-2-ylmethyl)-4-piperidyl]methyl}pyridine-3-carboxamide] |  | 109 nM |  | 6.4 nM
Cc1ccc(C(=O)NCC2CCN(C[C@H]3COc4ccc(Cl)cc4O3)CC2)c(N)n1 [Example 14, (S)-2-amino-N-{[1-(7-chloro-1,4-benzodioxan-2-ylmethyl)-4-piperidyl]methyl}-6-methylpyridine-3-carboxamide] | 97% | 43.9 nM |  | 
Nc1ncccc1C(=O)NCC1CCN(C[C@H]2COc3ccccc3O2)CC1 [Example 15, (S)-2-amino-N-{[1-(1,4-benzodioxan-2-ylmethyl)-4-piperidyl]methyl}pyridine-3-carboxamide] | 99% | 64.6 nM |  | 
Nc1ccsc1C(=O)NCC1CCN(C[C@H]2COc3ccc(Cl)cc3O2)CC1 [Example 17, (S)-3-amino-N-{[1-(7-chloro-1,4-benzodioxan-2-ylmethyl)-4-piperidyl]methyl}thiophene-2-carboxamide] |  | 36 nM |  | 27 nM
Cc1ncccc1C(=O)NCC1CCN(C[C@H]2COc3ccc(Cl)cc3O2)CC1 [Example 18, (S)-N-{[1-(7-chloro-1,4-benzodioxan-2-ylmethyl)-4-piperidyl]methyl}-2-methylpyridine-3-carboxamide] | 89% | 110 nM |  | 
Nc1ncccc1C(=O)NCC1CCN(C[C@H]2COc3cccc(C(F)(F)F)c3O2)CC1 [Example 20, (S)-2-amino-N-{[1-(8-trifluoromethyl-1,4-benzodioxan-2-ylmethyl)-4-piperidyl]methyl}pyridine-3-carboxamide] | 98% | 12 nM |  | 
O=C(NCC1CCN(C[C@H]2COc3ccc(Cl)cc3O2)CC1)c1cccc2cccnc12 [Example 23, (S)-N-{[1-(7-chloro-1,4-benzodioxan-2-ylmethyl)-4-piperidyl]methyl}quinoline-8-carboxamide] | 95% | 80 nM |  | 

The remaining molecules from weak to strong by Ki [2], led by results:

inhibition at 1 µM [1] | Ki [2] | inhibition at 1 µM [2] | Ki [1] | SMILES
 | 197 nM |  | 3.6 nM | COc1ccc2c(c1)O[C@@H](CN1CCC(CNC(=O)c3cccnc3N)CC1)CO2 [Example 7, (S)-2-amino-N{[1-(7-methoxy-1,4-benzodioxan-2-ylmethyl)-4-piperidyl]methyl}-pyridine-3-carboxamide]
99% | 68 nM |  |  | Nc1ccsc1C(=O)NCC1CCN(CC2COc3ccccc3O2)CC1 (stereo not drawn) [Example 16, 3-amino-N-{[1-(1,4-benzodioxan-2-ylmethyl)-4-piperidyl]methyl}thiophene-2-carboxamide]
96% | 55.6 nM |  |  | Cc1ccc2c(c1)O[C@@H](CN1CCC(CNC(=O)c3cccnc3N)CC1)CO2 [Example 5, (S)-2-amino-N-{[1-(7-methyl-1,4-benzodioxan-2-ylmethyl)-4-piperidyl]methyl}pyridine-3-carboxamide]
98% | 41 nM |  |  | COc1cccc2c1OC(CN1CCC(CNC(=O)c3cccnc3N)CC1)CO2 (stereo not drawn) [Example 11, 2-amino-N-{[1-(8-methoxy-1,4-benzodioxan-2-ylmethyl)-4-piperidyl]methyl}pyridine-3-carboxamide]
99% | 33 nM |  |  | Cc1cccc2c1O[C@@H](CN1CCC(CNC(=O)c3cccnc3N)CC1)CO2 [Example 13, (S)-2-amino-N-{[1-(8-methyl-1,4-benzodioxan-2-ylmethyl)-4-piperidyl]methyl}pyridine-3-carboxamide]
97% | 32.2 nM |  |  | Nc1ncccc1C(=O)NCC1CCN(C[C@H]2COc3ccc(Cl)cc3O2)CC1 [Example 1, (S)-(-)-2-amino-N-{[1-(7-chloro-1,4-benzodioxan-2-ylmethyl)-4-piperidyl]methyl}pyridine-3-carboxamide]
95% | 21 nM |  |  | O=C(NCC1CCN(C[C@H]2COc3ccc(Cl)cc3O2)CC1)c1ccccn1 [Example 12, (S)-N-{[1-(7-chloro-1,4-benzodioxan-2-ylmethyl)-4-piperidyl]methyl}pyridine-2-carboxamide]
99% | 15 nM |  |  | O=C(NCC1CCN(C[C@H]2COc3ccc(Cl)cc3O2)CC1)c1cccnc1 [Example 22, (S)-N-{[1-(7-chloro-1,4-benzodioxan-2-ylmethyl)-4-piperidyl]methyl}pyridine-3-carboxamide]
